The source of these data is ChEMBL document CHEMBL5390285, “Isolation and In Vitro and In Vivo Activity of Secondary Metabolites from Clerodendrum polycephalum Baker against Plasmodium Malaria Parasites” (J Nat Prod, 2023).

pIC50: −log10 of the molar value.

The test system of one series is Plasmodium falciparum. Description: Antiplasmodial activity against synchronized ring stage Plasmodium falciparum 3D7 infected in human erythrocytes assessed as inhibition of parasite proliferation preincubated for 48 hrs followed by [3H]-hypoxanthine incorporation and measured after 24 hrs by microbeta liquid scintillation counter analysis. The series is classed as functional, organism-based.

Series [1] is described as follows: Cytotoxicity against human NFF cells assessed as growth inhibition incubated for 72 hrs by SRB assay. The series is classed as toxicity, cell-based.
Series [2] in a line: Selectivity index, ratio of IC50 for cytotoxicity against human NFF cells to the IC50 for antiplasmodial activity against Plasmodium falciparum 3D7 infected in human erythrocytes. Type of series: toxicity, cell-based. The following applies: read-out: Ratio IC50.
The subject of series [3] is Plasmodium berghei. Put plainly: In vivo antimalarial activity against Plasmodium berghei NK65 infected in Swiss albino mouse assessed as reduction in parasitemia in erythrocytes at 10 mg/kg, po administered once daily for 4 days and measured on day 5 post-infection by Giemsa staining based microscopic analysis relative to control. The series is classed as functional. On the set-up: scale not given: the % may be the effect or the level left. The note with it: time 4 day.

Series [4] has as its system Plasmodium berghei. Description: In vivo antimalarial activity against Plasmodium berghei NK65 infected in Swiss albino mouse assessed as reduction in parasitemia in erythrocytes at 20 mg/kg, po administered once daily for 4 days and measured on day 5 post-infection by Giemsa staining based microscopic analysis relative to control. The series is classed as functional. On the set-up: scale not given: the % may be the effect or the level left. The following applies: time 4 day.

The subject of series [5] is Plasmodium berghei. Put plainly: In vivo antimalarial activity against Plasmodium berghei NK65 infected in Swiss albino mouse assessed as chemosuppression of parasite in erythrocytes at 10 mg/kg, po administered once daily for 4 days and measured on day 5 post-infection by Giemsa staining based microscopic analysis relative to control. The note with it: time 4 day. Type of series: functional.

The subject of series [6] is Plasmodium berghei. Description: In vivo antimalarial activity against Plasmodium berghei NK65 infected in Swiss albino mouse assessed as chemosuppression of parasite in erythrocytes at 20 mg/kg, po once daily for 4 days and measured on day 5 post-infection by Giemsa staining based microscopic analysis relative to control. The following applies: time 4 day. Type of series: functional.

On to `CC1(C)CCC[C@@]2(C)C1=C(O)C(=O)c1c2c(O)c2oc(CO)cc2c1O`, for which the negative logarithm of the IC50 (pIC50) with Plasmodium falciparum was 4.52. The same measure, in the same setting: in the case of `CC(=O)OC[C@@]12[C@@H](OC(C)=O)C[C@@H](C)[C@](C)(CCC3CCOC3=O)[C@H]1CCC[C@@]2(O)CCl` (some centres not stated) it was < 4.30; in that of `CC(=O)OC[C@@]12[C@@H](OC(C)=O)C[C@@H](C)[C@](C)(CCC3CCOC3=O)[C@H]1CCC[C@@H]2C=O` (some centres not stated), 4.56. For the compound `C=CC1=C(C)C2=NC/1=C\C1=NC(=C\C3=C(C)C4=C(O)[C@H](C(=O)OC)/C(=C5/N/C(=C\2)[C@@H](C)[C@@H]5CCC(=O)OC)C4=N3)/C(CC)=C1C`, the pIC50 in the series with Plasmodium falciparum was 5.35. In addition, in series [1], the IC50 at 72 h was > 50 µM. Moreover, the selectivity ratio in series [2] is > 11. Also, the Activity with Plasmodium berghei [3] came to 2.52%; with Plasmodium berghei [4], 1.5%; with Plasmodium berghei [5] it was 79%; in the series on Plasmodium berghei [6] it was 87%. `CC1(C)CCC[C@]2(C)c3c(c(O)c4cc(CO)oc4c3O)C(=O)C[C@@H]12`: in the series with Plasmodium falciparum, the pIC50 was < 4.40. In the case of `CC(=O)OC[C@@]12[C@@H](OC(C)=O)C[C@@H](C)[C@](C)(CCC3CCOC3=O)[C@H]1CCC[C@@]21CO1` (some centres not stated), the pIC50 in the series with Plasmodium falciparum was < 4.30. As to `COc1ccc(-c2cc(=O)c3c(O)cc(O)cc3o2)cc1` [ACACETIN], in the series with Plasmodium falciparum, the pIC50 was > 4.40. Turning to `CCN(CC)CCCC(C)Nc1ccnc2cc(Cl)ccc12` (configuration not stated) [CHLOROQUINE], in series [1], the IC50 at 72 h was 31.7 µM. The Activity in the series on Plasmodium berghei [3] is listed as 1.78%; with Plasmodium berghei [5], 85%. For `CC1(C)C[C@H](O)C[C@@]2(C)OC(=O)C=C12` [LOLIOLIDE], the pIC50 in the series with Plasmodium falciparum was < 4.30.
